For one assay, the target named is AChE (Homo sapiens, UniProt P22303). Description: biochemical. The settings on record: for inhibition at 1000 µM: 10^−3 M; for inhibition at 100 µM: 10^−4 M; for IC50: 10^−3–10^−9 M concentrations.
Another assay concerns the target BChE (Homo sapiens, UniProt P06276). Description: Anticholinesterase activity assay (modified Ellman method), BChE. The class given is biochemical. The settings on record: for inhibition at 1000 µM: 10^−3 M; for inhibition at 100 µM: 10^−4 M. The procedure:
. Initially, all the obtained compounds were tested at 10^−3 M and 10^−4 M concentrations and the ChE inhibitory results are outlined in Table 1. […]. Compounds 3a, 3c and 3i indicated more than 50% activity at the 10^−4 M concentration. […]. […] According to the results of activity tests, some general results can be listed as follows. The compounds 3a, 3c and 3i contain the non-substituted, methoxy and trifluoromethyl substituents on the phenyl ring, respectively. […]
The inhibitory capacity of the obtained compounds on AChE and BChE biological activities was assessed using a modified Ellman’s spectrometric method, as described in our previous studies. Donepezil were used as a reference drug. All pipetting procedures in the enzyme inhibition assay were carried out via a robotics system, Biotek Precision XS (Winooski, VT, USA). A BioTek-Synergy H1 microplate reader (Winooski, VT, USA) was used to carry out measurements of percent inhibition at 412 nm, and the IC50 values of the selected compounds were performed as previously described.

For a further assay, the target named is T1, hMAO-A (Homo sapiens, UniProt P21397).
T1 construct: purchased Sigma-Aldrich (Steinheim, Germany)
T1 sequence (P21397 1-527): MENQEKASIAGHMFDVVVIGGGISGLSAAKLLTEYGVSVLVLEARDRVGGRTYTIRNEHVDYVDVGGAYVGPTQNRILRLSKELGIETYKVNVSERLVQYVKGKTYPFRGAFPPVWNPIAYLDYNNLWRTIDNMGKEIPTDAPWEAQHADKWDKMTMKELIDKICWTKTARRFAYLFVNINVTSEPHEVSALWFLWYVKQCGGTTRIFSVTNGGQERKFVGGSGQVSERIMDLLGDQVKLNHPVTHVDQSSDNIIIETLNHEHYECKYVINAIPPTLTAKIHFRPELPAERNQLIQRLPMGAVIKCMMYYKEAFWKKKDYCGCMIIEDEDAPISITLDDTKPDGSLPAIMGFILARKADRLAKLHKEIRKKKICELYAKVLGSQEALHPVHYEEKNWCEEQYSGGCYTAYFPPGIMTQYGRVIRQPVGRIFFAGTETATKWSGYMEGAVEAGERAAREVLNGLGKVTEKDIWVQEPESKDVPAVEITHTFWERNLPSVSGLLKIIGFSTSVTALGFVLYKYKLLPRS
Nature of the assay: Monoamine oxidase fluorometric inhibition assay, MAO-A. The class given is biochemical. The settings on record: for inhibition at 1000 µM: 10^−3 M; for inhibition at 100 µM: 10^−4 M. As for the experimental part:
In order to investigate the monoamine oxidase enzyme inhibitory effects of synthesized compounds, MAO-A and MAO-B enzyme activities were performed by using a fluorometric inhibition method. Moclobemide and selegiline were used as standard drugs for MAO-A and MAO-B enzymes, respectively. Test compounds and standard drugs were used in the same concentrations as in AChE and BChE enzyme activity assays. In Table 2, MAO enzyme inhibitory results are given. […]. To investigate the MAO-A and MAO-B enzyme inhibition profiles of the synthesized compounds, the fluorometric enzyme inhibition assay was carried out, as previously defined by us. Ampliflu™ Red (10-Acetyl-3,7-dihydroxyphenoxazine) was used as a fluorescence reagent in this assay.

Another assay addresses T2, hMAO-B (Homo sapiens, UniProt P27338).
T2 construct: purchased Sigma-Aldrich (Steinheim, Germany)
T2 sequence (P27338 1-520): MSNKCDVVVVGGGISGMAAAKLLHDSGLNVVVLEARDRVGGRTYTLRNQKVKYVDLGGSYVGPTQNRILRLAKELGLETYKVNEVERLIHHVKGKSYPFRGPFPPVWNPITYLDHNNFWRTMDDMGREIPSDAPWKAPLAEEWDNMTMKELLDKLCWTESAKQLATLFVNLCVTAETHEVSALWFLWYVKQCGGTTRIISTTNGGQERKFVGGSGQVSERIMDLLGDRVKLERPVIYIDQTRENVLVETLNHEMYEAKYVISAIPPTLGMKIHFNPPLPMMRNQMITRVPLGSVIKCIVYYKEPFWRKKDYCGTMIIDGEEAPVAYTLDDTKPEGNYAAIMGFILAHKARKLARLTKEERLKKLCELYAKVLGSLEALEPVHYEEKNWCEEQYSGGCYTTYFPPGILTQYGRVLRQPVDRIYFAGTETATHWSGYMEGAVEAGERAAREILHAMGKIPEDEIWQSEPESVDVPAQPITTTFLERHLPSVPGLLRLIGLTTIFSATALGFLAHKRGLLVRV
Description: biochemical. The following applies: for inhibition at 1000 µM: 10^−3 M; for inhibition at 1000 µM / inhibition at 100 µM: read-out: MAO-B % Inhibition; for inhibition at 100 µM: 10^−4 M; for IC50: read-out: MAO-B IC50. As for the experimental part: Test compounds and standard drugs were used in the same concentrations as in AChE and BChE enzyme activity assays. […] To investigate the MAO-A and MAO-B enzyme inhibition profiles of the synthesized compounds, the fluorometric enzyme inhibition assay was carried out, as previously defined by us. Ampliflu™ Red (10-Acetyl-3,7-dihydroxyphenoxazine) was used as a fluorescence reagent in this assay.

Molecules are shown by their SMILES.

AChE, sequence (P22303 32-614): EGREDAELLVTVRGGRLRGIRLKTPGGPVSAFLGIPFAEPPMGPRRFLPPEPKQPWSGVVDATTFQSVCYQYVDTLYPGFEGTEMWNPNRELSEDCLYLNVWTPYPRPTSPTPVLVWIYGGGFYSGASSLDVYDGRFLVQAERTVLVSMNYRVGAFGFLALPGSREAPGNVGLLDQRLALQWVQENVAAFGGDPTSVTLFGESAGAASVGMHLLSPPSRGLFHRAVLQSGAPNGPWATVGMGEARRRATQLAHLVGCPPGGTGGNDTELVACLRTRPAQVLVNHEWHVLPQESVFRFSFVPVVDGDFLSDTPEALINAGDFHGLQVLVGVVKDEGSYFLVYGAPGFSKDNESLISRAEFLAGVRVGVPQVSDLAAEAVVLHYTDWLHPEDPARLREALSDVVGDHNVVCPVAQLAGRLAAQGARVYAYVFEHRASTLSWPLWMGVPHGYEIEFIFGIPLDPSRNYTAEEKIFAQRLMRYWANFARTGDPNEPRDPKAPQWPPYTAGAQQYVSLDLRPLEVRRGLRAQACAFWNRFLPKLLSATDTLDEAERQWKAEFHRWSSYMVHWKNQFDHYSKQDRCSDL
BChE, sequence (P06276 29-602): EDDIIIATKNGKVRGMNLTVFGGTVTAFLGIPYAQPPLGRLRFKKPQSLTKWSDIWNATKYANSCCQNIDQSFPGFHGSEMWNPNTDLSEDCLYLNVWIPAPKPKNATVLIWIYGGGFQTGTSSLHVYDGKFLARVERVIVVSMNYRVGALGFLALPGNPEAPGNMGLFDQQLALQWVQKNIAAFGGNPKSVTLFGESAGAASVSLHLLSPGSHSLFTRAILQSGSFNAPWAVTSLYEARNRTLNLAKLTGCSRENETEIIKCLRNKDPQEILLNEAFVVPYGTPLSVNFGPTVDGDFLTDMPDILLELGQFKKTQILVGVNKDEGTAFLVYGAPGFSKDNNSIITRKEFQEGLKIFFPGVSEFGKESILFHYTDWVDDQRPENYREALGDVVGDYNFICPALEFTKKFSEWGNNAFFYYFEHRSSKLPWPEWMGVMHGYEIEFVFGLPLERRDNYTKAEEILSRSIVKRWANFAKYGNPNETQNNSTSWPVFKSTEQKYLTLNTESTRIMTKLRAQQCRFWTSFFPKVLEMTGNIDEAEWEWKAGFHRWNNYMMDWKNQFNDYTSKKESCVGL

Regarding `Fc1ccc(N2CCN(c3ccc(C=NNc4nc(-c5ccc(Cl)cc5Cl)cs4)cc3)CC2)cc1` [Compound 3k, 4-(2,4-dichlorophenyl)-2-(2-(4-(4-(4-fluorophenyl)piperazin-1-yl)benzylidene)hydrazineyl)thiazole], the inhibition at 1000 µM amounted to 35.7 ± 0.57% on AChE, 28.59 ± 0.25% on BChE, 35.2 ± 0.48% against hMAO-A and 55.1 ± 0.92% at hMAO-B. For the same compound, the inhibition at 100 µM against AChE was 20.4 ± 0.3%; at BChE, 21 ± 0.61%; at hMAO-A, 19.1 ± 0.4%; at hMAO-B it was 34.2 ± 0.81%.

Consider `Fc1ccc(N2CCN(c3ccc(C=NNc4nc(-c5ccccc5)cs4)cc3)CC2)cc1` [Compound 3a, 2-(2-(4-(4-(4-fluorophenyl)piperazin-1-yl)benzylidene)hydrazineyl)-4-phenylthiazole], for which the inhibition at 1000 µM is 84.2 ± 0.89% against AChE, 21.5 ± 0.38% at BChE, 38.2 ± 0.95% against hMAO-A and 78.2 ± 1.05% at hMAO-B. Besides, the IC50 was 0.0496 ± 0.002 µM against AChE and 2.11 ± 0.086 µM on hMAO-B. Also, the inhibition at 100 µM worked out at 19.3 ± 0.28% at BChE, 20.1 ± 0.63% at hMAO-A and 70.2 ± 0.99% on hMAO-B.

`Fc1ccc(N2CCN(c3ccc(C=NNc4nc(-c5ccc(Br)cc5)cs4)cc3)CC2)cc1` [Compound 3h, 4-(4-bromophenyl)-2-(2-(4-(4-(4-fluorophenyl)piperazin-1-yl)benzylidene)hydrazineyl)thiazole]: the inhibition at 1000 µM was found to be 75.3 ± 1.06% on AChE, 40.6 ± 0.68% at BChE, 34.2 ± 0.58% on hMAO-A and 68.9 ± 1.25% at hMAO-B. The inhibition at 100 µM against AChE came out at 47.1 ± 0.74%; on BChE, 35.5 ± 0.41%; against hMAO-A, 22.2 ± 0.47%; at hMAO-B it was 39.1 ± 0.63%.

At hMAO-A, `O=C(NCCN1CCOCC1)c1ccc(Cl)cc1` [Moclobemide, reference compound] showed an inhibition at 1000 µM of 91.2 ± 2.8% and an inhibition at 100 µM of 78.2 ± 2.55%.

Take `Fc1ccc(-c2csc(NN=Cc3ccc(N4CCN(c5ccc(F)cc5)CC4)cc3)n2)cc1` [Compound 3f, 4-(4-fluorophenyl)-2-(2-(4-(4-(4-fluorophenyl)piperazin-1-yl)benzylidene)hydrazineyl)thiazole]: the inhibition at 1000 µM against AChE stood at 78.4 ± 1.04%; on BChE it was 28.2 ± 0.42%; against hMAO-A, 30.1 ± 0.47%; on hMAO-B, 57.3 ± 1.03%. Further, the inhibition at 100 µM against AChE turned out to be 48.1 ± 0.87%; on BChE, 20.4 ± 0.35%; against hMAO-A it was 19.3 ± 0.41%; on hMAO-B, 39.2 ± 0.79%.

As to `O=[N+]([O-])c1ccc(-c2csc(NN=Cc3ccc(N4CCN(c5ccc(F)cc5)CC4)cc3)n2)cc1` [Compound 3d, 2-(2-(4-(4-(4-fluorophenyl)piperazin-1-yl)benzylidene)hydrazineyl)-4-(4-nitrophenyl)thiazole], the inhibition at 1000 µM worked out at 76.7 ± 1.12% against AChE, 35.4 ± 0.49% at BChE, 51 ± 0.97% at hMAO-A and 75.7 ± 1.06% on hMAO-B. The inhibition at 100 µM amounted to 38.5 ± 0.76% against AChE, 31.9 ± 0.56% on BChE, 39.1 ± 0.71% on hMAO-A and 65.2 ± 0.97% at hMAO-B. In addition, at hMAO-B, the IC50 is 5.2 ± 0.153 µM.

As to `Cc1ccc(-c2csc(NN=Cc3ccc(N4CCN(c5ccc(F)cc5)CC4)cc3)n2)cc1` [Compound 3b, 2-(2-(4-(4-(4-fluorophenyl)piperazin-1-yl)benzylidene)hydrazineyl)-4-(p-tolyl)thiazole], the inhibition at 1000 µM was 75.3 ± 1.05% on AChE, 37.4 ± 0.67% on BChE, 44.2 ± 1.08% against hMAO-A and 60.8 ± 1.11% on hMAO-B. Moreover, the inhibition at 100 µM at AChE stood at 45.9 ± 0.88%; at BChE, 25.3 ± 0.58%; against hMAO-A it was 25.8 ± 0.8%; on hMAO-B it was 46.7 ± 0.98%.

On to `Fc1ccc(N2CCN(c3ccc(C=NNc4nc(-c5ccc(C(F)(F)F)cc5)cs4)cc3)CC2)cc1` [Compound 3i, 2-(2-(4-(4-(4-fluorophenyl)piperazin-1-yl)benzylidene)hydrazineyl)-4-(4-(trifluoromethyl)phenyl)thiazole], for which the inhibition at 1000 µM at AChE was 80.7 ± 1.02%; on BChE, 45.4 ± 0.52%; at hMAO-A it was 38.2 ± 0.78%; on hMAO-B, 59.1 ± 0.77%. The compound also gave a half-inhibitory concentration (IC50) at AChE of 0.216 ± 0.01 µM. Moreover, the inhibition at 100 µM against AChE is greater than 50%; on BChE, 35.4 ± 0.39%; against hMAO-A, 22.8 ± 0.54%; on hMAO-B, 40.2 ± 0.58%.

As for `Fc1ccc(N2CCN(c3ccc(C=NNc4nc(-c5ccc(Cl)cc5)cs4)cc3)CC2)cc1` [Compound 3g, 4-(4-chlorophenyl)-2-(2-(4-(4-(4-fluorophenyl)piperazin-1-yl)benzylidene)hydrazineyl)thiazole], the inhibition at 1000 µM on AChE came to 64.5 ± 0.67%; on BChE it was 38.54 ± 0.35%; at hMAO-A it was 48.2 ± 0.97%; at hMAO-B it was 68.1 ± 1.12%. Moreover, the inhibition at 100 µM at AChE worked out at 37.8 ± 0.6%; on BChE, 20.2 ± 0.35%; at hMAO-A it was 30.2 ± 0.5%; on hMAO-B, 41.8 ± 0.86%.

On to `N#Cc1ccc(-c2csc(NN=Cc3ccc(N4CCN(c5ccc(F)cc5)CC4)cc3)n2)cc1` [Compound 3e, 4-(2-(2-(4-(4-(4-fluorophenyl)piperazin-1-yl)benzylidene)hydrazineyl)thiazol-4-yl)benzonitrile], for which the inhibition at 1000 µM at AChE amounted to 71.2 ± 0.9%; on BChE it was 31.8 ± 0.61%; against hMAO-A, 47.2 ± 0.88%; at hMAO-B, 58.1 ± 0.9%. In addition, the inhibition at 100 µM at AChE was determined as 42.3 ± 0.63%; on BChE, 24.9 ± 0.38%; at hMAO-A, 23.5 ± 0.6%; at hMAO-B it was 43.1 ± 0.71%.

Turning to `Cc1ccc(-c2csc(NN=Cc3ccc(N4CCN(c5ccc(F)cc5)CC4)cc3)n2)c(C)c1` [Compound 3j, 4-(2,4-dimethylphenyl)-2-(2-(4-(4-(4-fluorophenyl)piperazin-1-yl)benzylidene)hydrazineyl)thiazole], the inhibition at 1000 µM was found to be 53.8 ± 0.62% at AChE, 31.9 ± 0.47% at BChE, 48.2 ± 0.88% at hMAO-A and 69.2 ± 1.2% at hMAO-B. Moreover, the inhibition at 100 µM amounted to 26.9 ± 0.55% at AChE, 25.7 ± 0.49% on BChE, 40.2 ± 0.52% on hMAO-A and 40.8 ± 0.92% on hMAO-B.

(Values after paper PMC6651548, “Synthesis and AChE Inhibitory Activity of Novel Thiazolylhydrazone Derivatives” (Molecules, 2019).)
